Source: patent publication US11814367B2, “Inhibitors of glycogen synthase 1 (GYS1) and methods of use thereof” (Maze Therapeutics, Inc., priority 2021, dated 2023)

What was measured:
[1] = tested on: hGYS1 enzyme / glycogen synthesis in HeLa cells; assay: GYS1 cell based assay (glycogen synthesis, Glucose-glo); parameters: species or system human; details: Homo sapiens, HeLa, 24 h, 24 h incubation, 20 mM glucose, geometric mean of at least 2 runs
Source text: The GYS1 cell based assay is a bioluminescent assay that quantifies the glucose resulting from glycogen digestion; the quantified glucose is an indirect measure of GYS1 glycogen synthesis. Newly synthesized glycogen is digested using Glucoamylase; the resulting glucose is quantified by using the Glucose-glo assay kit from Promega. Glucose-glo works by coupling glucose oxidation and NADH production with a bioluminescent system that is activated with NADH. Glucose is oxidized by Glucose dehydrogenase and the reaction reduces NAD+ to NADH; NADH activates Reductase which reduces a pro-luciferin Reductase Substrate to luciferin. Luciferin is detected in a luciferase reaction using Ultra-Glo rLuciferase and ATP, and the luminesce produced is proportional to the glucose in the sample. The luminescence is measured as a single point read in a plate reader.
Compounds that inhibit the hGYS1 enzyme and, subsequently, the glycogen synthesis in cells, were tested using assay ready plates (white, clear bottom 384 well plates) in a final DMSO reaction volume of 1% DMSO. Compounds in the assay ready plates were mixed with media with no additives, except for 20 mM glucose prior to cell addition. HeLa cells were starved in media with no additives, except for 1× Glutamax for 24 h. Starved HeLa cells were plated, in a 1:1 ratio to the media in the assay ready plate and incubated for 24 h at 37° C. and 5% C02. Cells were washed in 1×PBS buffer and lysed in lysis buffer containing 50% 1×PBS and 25% 0.3 N HCl of the final volume in the well or reaction volume; cells were incubated with lysis buffer for 10 minutes and quenched with the remaining 25% of the reaction volume that consisted of 450 mM Tris pH 8.0. Lysates were mixed in a 1:1 ratio with Glucoamylase in 100 mM Sodium Acetate buffer, pH 5.3; the mixture was incubated for 1 h at 37° C. The digested lysate was mixed in a 1:1 ratio with Glucose-glo detection mixture as per vendor recommendations (Luciferase detection buffer, Reductase, Reductase substrate, Glucose dehydrogenase, and NAD) in read-out plates (solid white 384-well plates) and incubated for 1 h at RT. The plates were read using a plate reader with luminescence capabilities. Each compound concentration Relative Luminescence Unit (RLU) was averaged and normalized to the average RLU of the positive and negative controls to obtain a percentage inhibition. The normalized data vs. concentration was plotted; to determine the half-maximal concentration (IC50), the Levenberg-Marquardt algorithm was used to fit a Hill equation to the dose response data.
The results are shown in Table 3 below, which reports the IC50 of each compound. Unless otherwise specified, IC50 values are reported as the geometric mean of at least 2 assay runs on separate days. As shown in the table below, the compounds of the present invention are potent inhibitors of human GYS1. Unless otherwise specified, IC50 values are reported as the geometric mean of at least two assay runs on separate days. Each run represents the average of a technical replicate, where each compound was assayed twice in the same plate. A superscript “#” symbol in Table 3 indicates results from a single assay run.

[2] = biological target: hGYS1 enzyme (recombinant hGYS1/GN1 protein) (Homo sapiens (Human), UniProt P13807); assay: GYS1 coupled enzyme assay (PK/LDH); type: biochemical; details: hGYS1/GN1 50 nM, UDP-Glucose 0.8 mM, G6P 1 mM; geometric mean of at least 2 runs
Sequence of hGYS1 enzyme (recombinant hGYS1/GN1 protein) (P13807 whole entry): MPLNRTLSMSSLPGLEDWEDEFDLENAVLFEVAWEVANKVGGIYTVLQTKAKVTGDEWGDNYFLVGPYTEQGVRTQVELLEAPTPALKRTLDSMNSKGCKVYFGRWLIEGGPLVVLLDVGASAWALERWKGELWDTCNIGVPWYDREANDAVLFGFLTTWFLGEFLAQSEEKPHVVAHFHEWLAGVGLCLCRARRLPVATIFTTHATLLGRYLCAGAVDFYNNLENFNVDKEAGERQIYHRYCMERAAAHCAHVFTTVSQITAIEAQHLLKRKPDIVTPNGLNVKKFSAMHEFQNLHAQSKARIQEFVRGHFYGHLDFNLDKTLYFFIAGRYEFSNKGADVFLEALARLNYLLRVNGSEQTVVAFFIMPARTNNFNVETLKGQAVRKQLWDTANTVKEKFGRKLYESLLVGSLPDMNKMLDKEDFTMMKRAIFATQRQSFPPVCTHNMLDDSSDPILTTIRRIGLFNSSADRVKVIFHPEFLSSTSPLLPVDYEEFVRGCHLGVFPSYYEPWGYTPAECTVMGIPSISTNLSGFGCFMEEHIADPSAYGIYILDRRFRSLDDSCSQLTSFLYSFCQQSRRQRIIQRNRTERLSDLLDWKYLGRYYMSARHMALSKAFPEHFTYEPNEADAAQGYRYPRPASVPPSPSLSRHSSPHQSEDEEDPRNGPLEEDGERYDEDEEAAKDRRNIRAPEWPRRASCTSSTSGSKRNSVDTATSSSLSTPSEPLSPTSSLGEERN
Sequence of hGYS1 enzyme (recombinant hGYS1/GN1 protein) (P46976 whole entry partner): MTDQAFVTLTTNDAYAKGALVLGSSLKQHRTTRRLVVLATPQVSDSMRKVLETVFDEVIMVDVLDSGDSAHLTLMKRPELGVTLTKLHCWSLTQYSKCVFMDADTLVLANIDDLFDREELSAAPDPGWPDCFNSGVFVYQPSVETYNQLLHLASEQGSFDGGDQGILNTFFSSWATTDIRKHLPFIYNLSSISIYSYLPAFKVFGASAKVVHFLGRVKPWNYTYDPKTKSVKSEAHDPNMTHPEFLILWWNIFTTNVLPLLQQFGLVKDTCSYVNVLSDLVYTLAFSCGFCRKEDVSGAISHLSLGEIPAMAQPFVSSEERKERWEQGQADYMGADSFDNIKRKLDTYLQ

[3] = biological target: hGYS2 enzyme (recombinant hGYS2/GN1 protein) (Homo sapiens (Human), UniProt P54840); assay: GYS2 coupled enzyme assay (PK/LDH); type: biochemical; details: geometric mean of at least 2 assay runs on separate days, read-out: Avg_IC50
Sequence of hGYS2 enzyme (recombinant hGYS2/GN1 protein) (P54840 whole entry): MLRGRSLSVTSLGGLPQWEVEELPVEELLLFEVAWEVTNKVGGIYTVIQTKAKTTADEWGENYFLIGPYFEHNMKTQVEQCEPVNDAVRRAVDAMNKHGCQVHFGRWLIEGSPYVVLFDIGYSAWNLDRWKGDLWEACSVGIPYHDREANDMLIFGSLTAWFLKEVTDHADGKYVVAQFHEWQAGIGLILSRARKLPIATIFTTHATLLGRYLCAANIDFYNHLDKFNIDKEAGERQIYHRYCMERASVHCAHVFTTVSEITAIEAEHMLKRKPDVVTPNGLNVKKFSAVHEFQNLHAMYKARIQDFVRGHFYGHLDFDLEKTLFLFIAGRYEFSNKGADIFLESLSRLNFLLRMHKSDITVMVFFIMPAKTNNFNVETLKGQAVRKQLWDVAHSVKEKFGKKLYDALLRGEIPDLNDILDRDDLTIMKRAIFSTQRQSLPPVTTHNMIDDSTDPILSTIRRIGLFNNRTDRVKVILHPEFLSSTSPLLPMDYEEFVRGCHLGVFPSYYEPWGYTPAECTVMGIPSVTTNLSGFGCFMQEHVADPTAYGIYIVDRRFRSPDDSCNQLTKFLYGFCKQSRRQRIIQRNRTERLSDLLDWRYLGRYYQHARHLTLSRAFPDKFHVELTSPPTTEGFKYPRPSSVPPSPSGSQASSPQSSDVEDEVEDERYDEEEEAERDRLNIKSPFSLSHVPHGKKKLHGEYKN
Sequence of hGYS2 enzyme (recombinant hGYS2/GN1 protein) (P46976 whole entry partner): as the sequence (P46976 whole entry partner) above
How it was run: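 Read-out: NADH loss at 340 nm, read each minute for 10 min, slope normalized to controls, duplicate % inhibition fit to Hill (0–100). Enzyme: 200 nM hGYS2/GN1; substrate 2 mM UDP-glucose plus 0.2% glycogen and 2 mM G6P; pH 7.5 Tris, 2.5% DMSO.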

SMILES | IC50 [1] [µM] | IC50 [2] [µM] | IC50 [3] [µM]
NC(=O)NCC(=O)N1C[C@H](F)C[C@H]1C(=O)N[C@@H](c1ccccc1)c1ccc(C2CC2)c(F)n1 [Compound 302, (2S,4R)-1-[2-(carbamoylamino)acetyl]-N-[(S)-(5-cyclopropyl-6-fluoropyridin-2-yl)(phenyl)methyl]-4-fluoropyrrolidine-2-carboxamide] | 1.23 |  | 
Cc1cc(CCC(=O)N2C[C@H](F)C[C@H]2C(=O)N[C@@H](c2ccccc2)c2ccc(C(C)C)cc2)ccn1 [Compound 99, (2S,4R)-4-fluoro-1-[3-(2-methylpyridin-4-yl)propanoyl]-N-[(S)-phenyl[4-(propan-2-yl)phenyl]methyl]pyrrolidine-2-carboxamide] |  | 0.065 | > 100
CC(=O)N1CCC[C@H]1C(=O)N[C@@H](c1ccccc1)c1ccc(C(C)C)cn1 [Compound 245, (2S)-1-acetyl-N-[(S)-phenyl[5-(propan-2-yl)pyridin-2-yl]methyl]pyrrolidine-2-carboxamide] |  | 1.31 | > 100
COc1ccc(CC(=O)N2C[C@H](F)C[C@H]2C(=O)N[C@@H](c2ccccc2)c2ccc(C(C)C)cc2)cc1 [Compound 88, (2S,4R)-4-fluoro-1-[2-(4-methoxyphenyl)acetyl]-N-[(S)-phenyl[4-(propan-2-yl)phenyl]methyl]pyrrolidine-2-carboxamide] |  | 0.049 | > 100
CC(C)c1ccc([C@@H](NC(=O)[C@@H]2C[C@@H](F)CN2C(=O)CNC2(C)COC2)c2ccccc2)cc1 [Compound 193, (2S,4R)-4-fluoro-1-{2-[(3-methyloxetan-3-yl)amino]acetyl}-N-[(S)-phenyl[4-(propan-2-yl)phenyl]methyl]pyrrolidine-2-carboxamide] |  | 0.303 | > 100
Cc1cc(C)n(CC(=O)N2C[C@H](F)C[C@H]2C(=O)N[C@@H](c2ccccc2)c2ccc(C(C)C)cc2)n1 [Compound 125, (2S,4R)-1-[2-(3,5-dimethyl-1H-pyrazol-1-yl)acetyl]-4-fluoro-N-[(S)-phenyl[4-(propan-2-yl)phenyl]methyl]pyrrolidine-2-carboxamide] |  | 0.023 | > 100
COc1cccc(CC(=O)N2C[C@H](F)C[C@H]2C(=O)N[C@@H](c2ccccc2)c2ccc(C(C)C)cc2)n1 [Compound 81, (2S,4R)-4-fluoro-1-[2-(6-methoxypyridin-2-yl)acetyl]-N-[(S)-phenyl[4-(propan-2-yl)phenyl]methyl]pyrrolidine-2-carboxamide] |  | 0.025 | > 100
Cc1nccn1CCCC(=O)N1C[C@H](F)C[C@H]1C(=O)N[C@@H](c1ccccc1)c1ccc(C(C)C)cc1 [Compound 105, (2S,4R)-4-fluoro-1-[4-(2-methyl-1H-imidazol-1-yl)butanoyl]-N-[(S)-phenyl[4-(propan-2-yl)phenyl]methyl]pyrrolidine-2-carboxamide] |  | 0.249 | > 100
CC(C)c1ccc([C@@H](NC(=O)[C@@H]2C[C@@H](F)CN2C(=O)C2(C)COC2)c2ccccc2)cc1 [Compound 25, (2S,4R)-4-fluoro-1-(3-methyloxetane-3-carbonyl)-N-[(S)-phenyl[4-(propan-2-yl)phenyl]methyl]pyrrolidine-2-carboxamide] |  | 0.235 | > 100
Cc1cnn(CC(=O)N2C[C@H](F)C[C@H]2C(=O)N[C@@H](c2ccccc2)c2ccc(C(C)C)cc2)c1 [Compound 56, (2S,4R)-4-fluoro-1-[2-(4-methyl-1H-pyrazol-1-yl)acetyl]-N-[(S)-phenyl[4-(propan-2-yl)phenyl]methyl]pyrrolidine-2-carboxamide] |  | 0.041 | > 100
Cc1nc(CC(=O)N2C[C@H](F)C[C@H]2C(=O)N[C@@H](c2ccccc2)c2ccc(C(C)C)cc2)c(C)s1 [Compound 69, (2S,4R)-1-[2-(2,5-dimethyl-1,3-thiazol-4-yl)acetyl]-4-fluoro-N-[(S)-phenyl[4-(propan-2-yl)phenyl]methyl]pyrrolidine-2-carboxamide] |  | 0.036 | > 100
CC(C)c1ccc([C@@H](NC(=O)[C@@H]2C[C@@H](F)CN2C(=O)Cn2ncc(N3CCNCC3)n2)c2ccccc2)cc1F [Compound 376, (2S,4R)-4-fluoro-N-[(S)-[3-fluoro-4-(propan-2-yl)phenyl](phenyl)methyl]-1-{2-[4-(piperazin-1-yl)-2H-1,2,3-triazol-2-yl]acetyl}pyrrolidine-2-carboxamide] |  | 0.008 | > 100
CC(C)c1ccc([C@@H](NC(=O)[C@@H]2C[C@@H](F)CN2C(=O)CCn2ccnn2)c2ccccc2)cc1 [Compound 11, (2S,4R)-4-fluoro-N-[(S)-phenyl[4-(propan-2-yl)phenyl]methyl]-1-[3-(1H-1,2,3-triazol-1-yl)propanoyl]pyrrolidine-2-carboxamide] |  | 0.091 | > 100
Cc1noc(CC(=O)N2C[C@H](F)C[C@H]2C(=O)N[C@@H](c2ccccc2)c2ccc(C(C)C)cc2)n1 [Compound 31, (2S,4R)-4-fluoro-1-[2-(3-methyl-1,2,4-oxadiazol-5-yl)acetyl]-N-[(S)-phenyl[4-(propan-2-yl)phenyl]methyl]pyrrolidine-2-carboxamide] |  | 0.048 | > 100
CC(C)c1ccc([C@@H](NC(=O)[C@@H]2C[C@@H](F)CN2C(=O)C(C)n2cnnn2)c2ccccc2)cc1 (stereo partly drawn) [Compound 24, (2S,4R)-4-fluoro-N-[(S)-phenyl[4-(propan-2-yl)phenyl]methyl]-1-[2-(1H-1,2,3,4-tetrazol-1-yl)propanoyl]pyrrolidine-2-carboxamide] |  | 0.05 | > 100
CC(C)c1ccc([C@@H](NC(=O)[C@@H]2C[C@@H](F)CN2C(=O)Cc2ccn(C)n2)c2ccccc2)cc1F [Compound 350, (2S,4R)-4-fluoro-N-[(S)-[3-fluoro-4-(propan-2-yl)phenyl](phenyl)methyl]-[2-(1-methyl-1H-pyrazol-3-yl)acetyl]pyrrolidine-2-carboxamide] |  | 0.02 | > 100
Cc1ccc(CCC(=O)N2C[C@H](F)C[C@H]2C(=O)N[C@@H](c2ccccc2)c2ccc(C(C)C)cc2)nc1 [Compound 101, (2S,4R)-4-fluoro-1-[3-(5-methylpyridin-2-yl)propanoyl]-N-[(S)-phenyl[4-(propan-2-yl)phenyl]methyl]pyrrolidine-2-carboxamide] |  | 0.054 | > 100
Cc1nnnn1CC(=O)N1C[C@H](F)C[C@H]1C(=O)N[C@@H](c1ccccc1)c1ccc(C2CC2)c(F)c1 [Compound 432, (2S,4R)-N-[(S)-(4-cyclopropyl-3-fluorophenyl)(phenyl)methyl]-4-fluoro-1-[2-(5-methyl-1H-1,2,3,4-tetrazol-1-yl)acetyl]pyrrolidine-2-carboxamide] |  | 0.185 | > 100
COc1nn(C)cc1C(=O)N1C[C@H](F)C[C@H]1C(=O)N[C@@H](c1ccccc1)c1ccc(C(C)C)cc1 [Compound 61, (2S,4R)-4-fluoro-1-(3-methoxy-1-methyl-1H-pyrazole-4-carbonyl)-N-[(S)-phenyl[4-(propan-2-yl)phenyl]methyl]pyrrolidine-2-carboxamide] |  | 0.243 | > 100
CC(C)c1ccc([C@@H](NC(=O)[C@@H]2C[C@@H](F)CN2C(=O)Cc2cn(C)nn2)c2ccccc2)cc1 (stereo in doubt) [Compound 229, (2RS,4R)-4-fluoro-1-[2-(1-methyl-1H-1,2,3-triazol-4-yl)acetyl]-N-[(S)-phenyl[4-(propan-2-yl)phenyl]methyl]pyrrolidine-2-carboxamide] |  | 0.025 | > 100
